Laboratory results taken from patent US20250002506A1, “IMPROVED PROCESS FOR THE PREPARATION OF LURBINECTEDIN AND ITS MORPHS THEREOF” (RK Pharma Inc., priority 2021, published 2025).

Key:
[1] = Stability study: storage in a sealed reagent bottle at -20° C for three months (description, water content, HPLC purity, XRPD); format: physicochemical; parameters: HPLC impurity at RRT 0.07 / HPLC impurity at RRT 0.20 / HPLC impurity at RRT 0.85 / HPLC impurity at RRT 0.98 / HPLC impurity at RRT 1.02 / HPLC impurity at RRT 1.07 / HPLC impurity at RRT 1.17 / HPLC impurity at RRT 1.23 / HPLC impurity at RRT 1.31 / HPLC impurity at RRT 1.38 / HPLC impurity at RRT 1.41: unit not given here
Method: An appropriate amount of the sample of the amorphous as well as RK-1 polymorphic form of Lurbinectedin obtained in examples 5 to 9 was placed in a reagent bottle at-20° C. under a sealed condition for the period of three months to perform a stability test. X-ray powder diffraction pattern, HPLC purity as well as DSC Chromatogram of amorphous as well as RK-1 polymorphic form of Lurbinectedin was evaluated again after storing for period of 3 months. Result of the stability study of both amorphous (Obtained in Example 5) as well as RK-1 polymorphic form of Lurbinectedin (Obtained in Example 6) has been tabulated in Tables 1-2 given below. […] Characteristic peaks in the XRPD pattern and DSC chromatogram of RK-1 polymorphic form of Lurbinectedin obtained initially as well as after storing for the period of three months have been tabulated in Table 3 given below.

[2] = Chemical stability under long term and accelerated storage conditions; format: physicochemical
[3] = at 3 months (A/3M), -20° C, sealed

Row | SMILES | HPLC impurity at RRT 0.07 [1, 3] | HPLC impurity at RRT 0.20 [1, 3] | HPLC impurity at RRT 0.85 [1, 3] | HPLC impurity at RRT 0.98 [1, 3] | HPLC impurity at RRT 1.02 [1, 3] | HPLC impurity at RRT 1.07 [1, 3] | HPLC impurity at RRT 1.31 [1, 3] | HPLC impurity at RRT 1.38 [1, 3] | HPLC impurity at RRT 1.41 [1, 3] | HPLC purity, LRBN [1, 3] [%] | Description ([1]; at 3 months, -20° C, sealed) | Water content ([1]; at 3 months, -20° C, sealed) [%] | Description ([1]; initial) | HPLC impurity at RRT 0.20 ([1]; initial) | HPLC impurity at RRT 0.98 ([1]; initial) | HPLC impurity at RRT 1.07 ([1]; initial) | HPLC impurity at RRT 1.17 ([1]; initial) | HPLC impurity at RRT 1.23 ([1]; initial) | HPLC impurity at RRT 1.31 ([1]; initial) | HPLC purity, LRBN ([1]; initial) [%] | other results
1 | COc1ccc2[nH]c3c(c2c1)CCN[C@]31CS[C@@H]2c3c(OC(C)=O)c(C)c4c(c3[C@H](COC1=O)N1[C@@H]2[C@H]2c3c(cc(C)c(OC)c3O)C[C@@H]([C@@H]1O)N2C)OCO4 [Amorphous form of Lurbinectedin, Lurbinectedin] | 0.06 | 0.02 | 0.01 | 0.03 | 0.05 | 0.02 | 0.02 | 0.01 | 0.01 | 99.77 | Off white | 9.91 | Off white | 0.02 | 0.03 | 0.02 | 0.04 | 0.03 | 0.02 | 99.81 | Water content ([1]; initial): 9.67%; Stability on storage (XRPD pattern after three months same as obtained initially) ([1]; -20° C, sealed): stable on storage
2 | COc1ccc2[nH]c3c(c2c1)CCN[C@]31CS[C@@H]2c3c(OC(C)=O)c(C)c4c(c3[C@H](COC1=O)N1[C@@H]2[C@H]2c3c(cc(C)c(OC)c3O)C[C@@H]([C@@H]1O)N2C)OCO4 [Pure Lurbinectedin, Lurbinectedin] |  |  |  |  |  |  |  |  |  |  |  |  |  |  |  |  |  |  |  |  | Period for which chemically stable [2]: about 6 months
3 | COc1ccc2[nH]c3c(c2c1)CCN[C@]31CS[C@@H]2c3c(OC(C)=O)c(C)c4c(c3[C@H](COC1=O)N1[C@@H]2[C@H]2c3c(cc(C)c(OC)c3O)C[C@@H]([C@@H]1O)N2C)OCO4 [polymorphic form RK-1 of Lurbinectedin, Lurbinectedin] | 0.06 | 0.02 | 0.01 | 0.03 | 0.05 | 0.02 | 0.02 | 0.01 | 0.01 | 99.77 | Off white | 10.1 | Off white | 0.03 | 0.03 | 0.02 | 0.04 | 0.03 | 0.02 | 99.86 | Description ([1]; after 1 month, -20° C, sealed): Off white powder; Description ([1]; at 3 months, -20° C, sealed, listed as RK-1 polymorphic form of Lurbinectedin): Off white powder; Water content ([1]; initial): 9.69%; Description ([1]; initial, listed as RK-1 polymorphic form of Lurbinectedin): Off white powder; Stability on storage (XRPD pattern after three months same as obtained initially) ([1]; -20° C, sealed): stable on storage
